Data reported in patent US8809344B2, “Compounds, compositions, and methods for control of hepatitis C viral infections” (priority 2008, dated 2014).

How the values were obtained:
[1] = test system: HCV genotype 1b subgenomic replicon (Con1 strain); assay: microbe, parasite or virus in culture; format: cell-based; conditions: Hepatitis C virus; 24 hours post-treatment; Renilla luciferase; Huh7.5 cells
Description: The replicon used in these studies was a transient genotype 1b subgenomic replicon generated from the Con1 strain. In this replicon, the HCV internal ribosome entry site (IRES) within the 5′ non-translated region (NTR) drives expression of the first 32 amino acids of the core protein fused to humanized Renilla luciferase (hRluc). The encephalomycarditis IRES lies 3′ to the hRluc open reading frame (ORF) and drives expression of non-structural (NS) proteins NS3 through NS5B. Huh7.5 cells (U.S. patent application Ser. No. 10/534,571) harboring this replicon were seeded into 96-well plates at 20,000 cells per well in medium containing 10% FBS, 1× penicillin/streptomycin, 1× non-essential amino acids, and 100 ng/ml Fungizone. After a four hour attachment period, compound was added to wells using a five point 3-fold serial dilution series with four replicate treatments per dose. Final DMSO percentage was 1% in a total volume of 200 ul. Compound-mediated HCV inhibition and toxicity were assayed 24 hours post-treatment using Renilla luciferase readout and an ATP viability assay (CellTiter-Glo, Promega, Madison, Wis., USA), respectively.

[2] = test system: all other chimeric replicons and the genotype 2a parental replicon; assay: Other chimeric replicons and genotype 2a parental replicon in Huh7.5 cells; format: cell-based; conditions: Hepatitis C virus
Description: That NS4B is the target of 80978 was confirmed by a complementary approach. The differential response to 80978 by HCV genotype 1b and 2a replicons allowed the use of chimeric replicons to narrow down the region of the HCV genotype 1b NS4B coding region that confers sensitivity to 80978. The nucleotide sequence of the wild type HCV genotype 2a NS4B is provided as SEQ ID NO: 7 and the wild type HCV genotype 2a NS4B protein sequence is provided as SEQ ID NO:8. Using a plasmid containing an 80978-resistant stable HCV genotype 2a subgenomic reporter replicon cDNA, six replacement, or chimeric constructs were made, where the regions encoding the following amino acids of NS4B were replaced with the regions encoding the corresponding amino acids of NS4B from HCV genotype 1b: (i) 7-254, (ii) 7-52, (iii) 53-254, (iv) 219-254, (v) 7-52 and 219-254, and (vi) 53 to 218. The full-length NS4B protein is 261 amino acids in length and is provided as SEQ ID NO:2. Thus, if any of these segments of NS4B from genotype 1b are sufficient to confer 80978-sensitivity to a genotype 2a HCV replicon, it will render the chimeric genotype 1b/genotype 2a replicon sensitive to the compound.
Response to 80978 was measured initially in unselected cells. […] All of the chimeric and wild type control constructs were responsive to Cyclosporin A (CsA).

[3] = test system: stable genotype 1b (Con1 strain) subgenomic replicon in control Clone A cells; assay: Control Clone A cells, HCV RNA by quantitative RT-PCR; format: cell-based; conditions: Hepatitis C virus, 72 h
Protocol: In an effort to gain insight into the target of 80978, Clone A cells were selected for resistance to 80978. Clone A cells are a human hepatoma cell line that contains a stable genotype 1b (Con1 strain) subgenomic replicon. Cells were cultured for 12 days in medium containing 10 μM 80978 and 1 mg/ml Geneticin™ (Invitrogen). Medium was changed every 3-4 days to replenish compound, and cells were split as needed to maintain subconfluent cultures. After 12 days of growth in the presence of 10 μM 80978, the concentration of 80978 was increased to 20 μM and cultured for an additional 19 days. Control Clone A cells were grown in parallel in the presence of diluent only. After this culture period, cells were evaluated for response to 80978.
Control cells and cells that had been cultured in the presence of 80978 were treated in triplicate with 3-fold serial dilutions of compound for 72 hours. At the end of this incubation period, total RNA was extracted, and HCV RNA levels were measured by quantitative RT-PCR using primers that recognize the 3′NTR.

[4] = test system: genotype 1a replicon H/FL-Neo(L+I) (H77 strain); assay: Genotype 1a replicon in Huh7.5 cells, HCV RNA by blot hybridization; format: cell-based; conditions: Hepatitis C virus, Huh7.5, 72 h
[5] = test system: chimeric APV23 (FL-J6/JFH) genotype 2a HCV; assay: HCV APV23 viral infectivity assay in Huh7.5 cells, 3′NTR RNA by realtime quantitative PCR; format: cell-based, hepatitis C virus; conditions: FIG. 6, genotype 2a NS4B coding region
Protocol: Inhibition of HCV infectivity by AP0080978 and its analogs (AP0080977, non-active enantiomer; AP0089652, racemate; and AP0080935, an aromatic, non-optically active analog of AP0080978) was assayed by exposing cells with infectious chimeric HCV virions in the presence of the compounds. This was accomplished by use of an HCV cell culture system essentially as described in Pietschmann, T. et al. (2006) 103(19): 7408-13, Proc. Natl. Acad. Sci. USA; and elsewhere. Two viral constructs were utilized to characterize inhibition of viral infectivity (FIG. 4). Construct APV23 (FL-J6/JFH) is a full-length, chimeric, genotype 2a HCV genome containing the HCV core through the NS2 first transmembrane domain coding region from the J6 HCV isolate linked to the second NS2 transmembrane domain NS3 through NS5B coding region of HCV strain JFH-1, as shown in FIG. 4 (i.e. an HCV chimera with the “C3 Junction” described in Pietschmann, T. et al. (2006) Proc. Natl. Acad. Sci. USA 103(19): 7408-13; see page 7409 and FIG. 2A of Pietschmann, T. et al.). Construct APV112 was generated by replacing nucleotides encoding amino acids 53 to 218 of the NS4B gene of the APV23 sequence with a corresponding sequence from a genotype 1b (Con1 strain).
Huh7.5 cells were plated at a density of 20,000 cells per well in 96-well plates. The cells were exposed to the chimeric HCV virions at a multiplicity of infection of 0.01. Potential inhibitory compounds were added simultaneously with the chimeric virus. Cells were incubated for 48 hours and then the levels of HCV 3′NTR and GAPDH RNA were quantified by realtime quantitative PCR. Data were analyzed by the comparative Ct method with delta-delta Ct determined relative to 1.0% DMSO. Results in FIGS. 5 and 6 are depicted as log change in 3′NTR copies relative to 1.0% DMSO.

[6] = test system: genotype 1b (Con1 strain) replicon with NS4B F1809L mutation; assay: F1809L mutant reporter replicon IVT RNA in Huh7.5 cells; format: cell-based; conditions: Hepatitis C virus
Description: To identify nucleotide changes that confer resistance to 80978, replicon RNA was reverse transcribed and amplified from total RNA extracted from 80978-resistant and control Clone A cells. […] One silent mutation at amino acid 1771 was also observed. Each mutation was introduced independently into a stable genotype 1b (Con1 strain) subgenomic reporter replicon plasmid via site-directed mutagenesis. […] The sequence of the wild type NS4B encoding sequence is provided as SEQ ID NO:1, the sequence of the mutated NS4B nucleotide sequence encoding the F1809V mutation is provided as SEQ ID NO:3, and the sequence of the mutated NS4B nucleotide sequence encoding the F1809L mutation is provided as SEQ ID NO:5. The sequence of the wild type NS4B protein is provided as SEQ ID NO:2, the sequence of the mutated NS4B protein with the F1809V mutation is provided as SEQ ID NO:4, and the sequence of the mutated NS4B nucleotide sequence encoding the F1809L mutation is provided as SEQ ID NO:6. […] A differential response was observed between cells electroporated with different replicon RNAs.

O=C(NCc1cccs1)c1nn2c(c1Cl)N[C@H](c1ccco1)C[C@@H]2C(F)(F)F (single isomer, unassigned) [Compound 80978]
EC50 [1]: 1.8 µM | EC50 [2]: > 20 µM | EC50 [3]: 1.76 µM | EC50 [4]: 7.8 µM | chimeric APV23 viral infectivity ([5]; listed as AP 80978): resistant | chimeric APV23 viral infectivity ([5]; listed as AP0080978): unaffected | EC50 [6]: > 22.5 µM
